Experimental data taken from BindingDB's records for doi:10.1021/jm00006a025 (Chungnam National University, 1995).

Target: T1, DNA topoisomerase 1 (Homo sapiens, UniProt P11387)
T1 sequence (P11387 whole entry): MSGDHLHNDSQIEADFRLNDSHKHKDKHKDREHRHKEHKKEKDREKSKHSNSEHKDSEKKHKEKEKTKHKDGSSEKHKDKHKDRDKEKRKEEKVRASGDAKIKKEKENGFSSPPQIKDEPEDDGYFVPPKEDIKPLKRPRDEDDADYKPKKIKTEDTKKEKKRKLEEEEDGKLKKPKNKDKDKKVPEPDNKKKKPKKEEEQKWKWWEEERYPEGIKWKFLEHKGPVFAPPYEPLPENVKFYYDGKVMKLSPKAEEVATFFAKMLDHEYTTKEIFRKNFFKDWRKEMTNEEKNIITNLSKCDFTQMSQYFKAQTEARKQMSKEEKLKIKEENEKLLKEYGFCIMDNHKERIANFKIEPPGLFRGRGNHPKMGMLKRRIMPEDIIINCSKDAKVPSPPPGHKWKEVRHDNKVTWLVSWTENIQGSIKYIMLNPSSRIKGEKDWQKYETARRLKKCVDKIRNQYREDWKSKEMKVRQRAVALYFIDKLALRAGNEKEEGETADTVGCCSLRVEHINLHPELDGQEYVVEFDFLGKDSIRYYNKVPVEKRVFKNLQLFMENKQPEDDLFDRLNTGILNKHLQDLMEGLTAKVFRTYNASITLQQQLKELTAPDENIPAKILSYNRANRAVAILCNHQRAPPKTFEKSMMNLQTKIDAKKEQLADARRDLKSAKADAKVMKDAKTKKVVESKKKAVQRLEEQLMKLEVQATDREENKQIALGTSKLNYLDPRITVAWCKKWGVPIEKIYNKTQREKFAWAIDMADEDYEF
Test: Inhibitory activity against DNA topoisomerase-1 obtained from Hela cells

IC50	SMILES
> 625 µM	CC(C)=CC=C(OC(=O)C(c1ccccc1)c1ccccc1)c1cc(O)c2c(O)ccc(O)c2c1O
> 625 µM	CC(C)=CC=C(OC(=O)C=C(C)C=CC=C(C)/C=C/C1=C(C)CCCC1(C)C)c1cc(O)c2c(O)ccc(O)c2c1O [(2Z,4E,6E,8E)-3,7-Dimethyl-9-(2,6,6-trimethyl-cyclohex-1-enyl)-nona-2,4,6,8-tetraenoic acid (R)-1-(5,8-dihydroxy-1,4-dioxo-1,4-dihydro-naphthalen-2-yl)-4-methyl-pent-3-enyl ester]
> 625 µM	CCCCC/C=C/C/C=C/C/C=C/CCCCC(=O)OC(=CC=C(C)C)c1cc(O)c2c(O)ccc(O)c2c1O [(6E,9E,12E)-Octadeca-6,9,12-trienoic acid (R)-1-(5,8-dihydroxy-1,4-dioxo-1,4-dihydro-naphthalen-2-yl)-4-methyl-pent-3-enyl ester]
> 625 µM	CCCCC/C=C/C/C=C/CCCCCCCC(=O)OC(=CC=C(C)C)c1cc(O)c2c(O)ccc(O)c2c1O [(9E,12E)-Octadeca-9,12-dienoic acid (R)-1-(5,8-dihydroxy-1,4-dioxo-1,4-dihydro-naphthalen-2-yl)-4-methyl-pent-3-enyl ester]
153 µM	CCC/C=C/C(=O)OC(=CC=C(C)C)c1cc(O)c2c(O)ccc(O)c2c1O [(E)-Hex-2-enoic acid (R)-1-(5,8-dihydroxy-1,4-dioxo-1,4-dihydro-naphthalen-2-yl)-4-methyl-pent-3-enyl ester]
153 µM	CC/C=C/CC(=O)OC(=CC=C(C)C)c1cc(O)c2c(O)ccc(O)c2c1O [(E)-Hex-3-enoic acid (R)-1-(5,8-dihydroxy-1,4-dioxo-1,4-dihydro-naphthalen-2-yl)-4-methyl-pent-3-enyl ester]
> 625 µM	CCCCCCCC/C=C/CCCCCCCC(=O)OC(=CC=C(C)C)c1cc(O)c2c(O)ccc(O)c2c1O [(E)-Octadec-9-enoic acid (R)-1-(5,8-dihydroxy-1,4-dioxo-1,4-dihydro-naphthalen-2-yl)-4-methyl-pent-3-enyl ester]
153 µM	CC(C)=CC=C(OC(=O)c1ccccc1)c1cc(O)c2c(O)ccc(O)c2c1O [(R)-1-(5,8-dihydroxy-1,4-dioxo-1,4-dihydronaphthalen-2-yl)-4-methylpent-3-enyl benzoate]
> 625 µM	CCCCCCCCCC(=O)OC(=CC=C(C)C)c1cc(O)c2c(O)ccc(O)c2c1O [Decanoic acid (R)-1-(5,8-dihydroxy-1,4-dioxo-1,4-dihydro-naphthalen-2-yl)-4-methyl-pent-3-enyl ester]
> 625 µM	CCCCCCCCCCCC(=O)OC(=CC=C(C)C)c1cc(O)c2c(O)ccc(O)c2c1O [Dodecanoic acid (R)-1-(5,8-dihydroxy-1,4-dioxo-1,4-dihydro-naphthalen-2-yl)-4-methyl-pent-3-enyl ester]
> 625 µM	CCCCCCCCCCCCCCCC(=O)OC(=CC=C(C)C)c1cc(O)c2c(O)ccc(O)c2c1O [Hexadecanoic acid (R)-1-(5,8-dihydroxy-1,4-dioxo-1,4-dihydro-naphthalen-2-yl)-4-methyl-pent-3-enyl ester]
> 625 µM	CCCCCCCCC(=O)OC(=CC=C(C)C)c1cc(O)c2c(O)ccc(O)c2c1O [Nonanoic acid (R)-1-(5,8-dihydroxy-1,4-dioxo-1,4-dihydro-naphthalen-2-yl)-4-methyl-pent-3-enyl ester]
> 625 µM	CCCCCCCCCCCCCCCCCC(=O)OC(=CC=C(C)C)c1cc(O)c2c(O)ccc(O)c2c1O [Octadecanoic acid (R)-1-(5,8-dihydroxy-1,4-dioxo-1,4-dihydro-naphthalen-2-yl)-4-methyl-pent-3-enyl ester]
> 625 µM	CCCCCCCC(=O)OC(=CC=C(C)C)c1cc(O)c2c(O)ccc(O)c2c1O [Octanoic acid (R)-1-(5,8-dihydroxy-1,4-dioxo-1,4-dihydro-naphthalen-2-yl)-4-methyl-pent-3-enyl ester]
